Laboratory results reported in publication PMC10555500, “Evaluation of the Antiproliferative Properties of CpRu Complexes Containing N-Methylated Triazaphosphaadamantane Derivatives” (Bioinorganic Chemistry and Applications, 2023).

Columns and labels:
[1] = system: MDA-MB-231 cells; assay: Complex uptake and subcellular distribution by ICP-MS; format: cell-based, human; conditions: MDA-MB-231, ICP-MS 106Pd
Description: For the cellular uptake experiments, MDA-MB-231 cells (approx. 5·10^6 cells/5 mL medium) were exposed to the complexes at their respective IC50 concentrations and in two conditions (6 h and 24 h of incubation time) and then washed with ice-cold PBS and centrifuged to obtain a cellular pellet. The cytosol, membrane/particulate, cytoskeletal, and nuclear fractions were extracted using a FractionPREP™ cell fractionation system (BioVision, USA) and performed according to the manufacturer's protocol. The Ru (^101Ru) and Pd (^106Pd) contents in different fractions were measured by using Thermo X-Series Quadrupole ICP-MS (Thermo Scientific) after the digestion of the samples. Briefly, the samples were digested with ultrapure HNO3 (65%), H2O2, and H3PO4 in a closed pressurized microwave digestion unit (Mars5, CEM) with medium-pressure HP500 vessels and then diluted in ultrapure water to obtain 2.0% (v/v) nitric acid. The instrument was tuned using a multielement ICP-MS 71C standard solution (Inorganic Venture). Indium (115In) at […] was used as the internal standard.
For the cellular uptake experiments, MDA-MB-231 cells (approx. 5·10^6 cells / 5 mL medium) were exposed to the complexes at their respective IC50 concentrations and at two conditions (6 h and 24 h of incubation time)., then washed with ice-cold PBS and centrifuged to obtain a cellular pellet.[7] […]

[2] = system: MDA-MB-231 breast cancer cells; assay: MTT cytotoxicity assay, MDA-MB-231 cells; format: cell-based, human; conditions: 24 h incubation, MTT, average of at least three experiments (±SD)
Description: The MDA-MB-231 and MCF-7 human breast cancer cells were purchased from ATCC. The MDA-MB-231 and MCF-7 cells were grown in Dulbecco's modified Eagles' medium (DMEM high glucose) (Capricorn Scientific) at 37°C in 5% CO2 supplemented with 10% fetal bovine serum (Capricorn Scientific). HDF cells were purchased from Merck and were grown in the fibroblast growth medium. All cells were adherent in monolayers and, upon confluence, were washed with phosphate buffer saline (PBS) and harvested by digestion with trypsin-EDTA 0.05% (v/v). The cells were suspended and transferred into new, sterile, culture flasks for maintenance or seeded in sterile test microplates for different assays. All cells were manipulated under aseptic conditions in a flow chamber.
The cells were adherent in monolayers and, upon confluence, were harvested by digestion with trypsin. The cytotoxicity of the complexes against the tumour cells was assessed using the colorimetric assay MTT […], which evaluates the metabolic activity of viable cells. This assay measures the conversion of yellow tetrazolium into purple formazan by an active mitochondrial dehydrogenase in living cells. For this purpose, the cells (10–20 × 10^3 in 200 μL of the medium) were seeded into 96-well plates and incubated in a 5% CO2 incubator at 37°C. The cells were settled for 24 h followed by the addition of a dilution series of the complexes in a medium (200 μL). The complexes were first solubilized in 100% DMSO, given a 10 mM stock solution, and then in a medium within the concentration range of 0.1–100 µM. […] After 24 h of incubation, the treatment solutions were removed by aspiration, and MTT solution (200 μL, 0.5 mg·mL^−1 in PBS) was added to each well. After 3 h at 37°C/5% CO2, the solution was removed, and the purple formazan crystals formed inside the cells were dissolved in DMSO (200 μL) by thorough shaking. The cellular viability was evaluated by measuring the absorbance at 570 nm by using a microplate spectrophotometer. The IC50 values were obtained by dose-response curves using the GraphPad Prism software (vs. 5).
The MDA-MB-231 and MCF-7 human breast cancer cells were purchased from ATCC. MDA-MB-231 and MCF-7 cells were grown in Dulbecco’s modified Eagles’s medium (DMEM high glucose) (Capricorn Scientific) at 37 °C in 5% CO2 supplemented with 10% fetal bovine serum (Capricorn Scientific). All cells were adherent in monolayers and, upon confluence, were washed with phosphate buffer saline (PBS) and harvested by digestion with Trypsin-EDTA 0.05% (v/v). The cells were suspended and transferred into new, sterile, culture flasks, for maintenance or seeded in sterile test microplates for different assays. All cells were manipulated under aseptic conditions in a flow chamber.
The cells were adherent in monolayers and, upon confluency, were harvested by digestion with trypsin. The cytotoxicity of the complexes against the tumour cells was assessed using the colorimetric assay MTT […], which evaluate the metabolic activity of viable cells. This assay measures the conversion of the yellow tetrazolium into purple formazan by an active mitochondrial dehydrogenase in living cells. For this purpose, cells (10-20 × 10^3 in 200 μL of medium) were seeded into 96-well plates and incubated in a 5% CO2 incubator at 37 °C. The cells were settled for 24 h followed by the addition of a dilution series of the complexes in medium (200 μL). The complexes were first solubilized in 100% DMSO, given a 10 mM stock solution, and then in medium within the concentration range of 0.1–100 µM. […] After 24 h of incubation, the treatment solutions were removed by aspiration, and MTT solution (200 μL, 0.5 mg·mL^-1 in PBS) was added to each well. After 3 h at 37 °C/5% CO2, the solution was removed, and the purple formazan crystals formed inside the cells were dissolved in DMSO (200 μL) by thorough shaking. […]

Question: With `CN1CN2CN(C)C[P]([Ru+2]([P](c3ccccc3)(c3ccccc3)c3ccccc3)[P](c3ccccc3)(c3ccccc3)c3ccccc3)(C1)C2.O=S(=O)([O-])C(F)(F)F.[Cl][Pd][Cl].c1cc[cH-]c1` [Compound 11, [RuCp(PPh3)2-µ-dmoPTA-1κP-2κ^2N,N′-PdCl2](CF3SO3)] as the compound, how does the “Pd amount in the membranes” value [1] read?
Answer: only residual

Question: And the IC50 [2]?
Answer: 1100 ± 200 nM
